Assay results: patent US20120283321A1, “USE OF GAMBIEROL FOR TREATING AND/OR PREVENTING NEURODEGENERATIVE DISEASES RELATED TO TAU AND BETA-AMYLOID” (Universidade De Santiago De Compostela, priority 2009, published 2012)
“Also recorded” adds a separate entry of the source.

Columns and labels:
[1] = tested on: extracellular β-amyloid peptide (β-amyloid 1-42 or β-amyloid 1-40); experiment: ELISA of extracellular β-amyloid in culture medium of cortical neurons; type: cell-based, mice; conditions: triple transgenic cultures treated with gambierol compared to those not treated
Procedure: The levels of extracellular β-amyloid in the culture medium of cortical neurons obtained from triple transgenic mice or from control mice treated with gambierol were determined by means of commercial ELISA kits for the detection of β-amyloid 1-42 or β-amyloid 1-40, following the manufacturer's recommended instructions (Covance). These kits are composed of plates treated with antibodies which capture the β-amyloid peptide at the amino-terminal end thereof. The standards with known quantities of β-amyloid, and the culture medium collected from the neuronal preparations with unknown quantities of β-amyloid, were added to the wells and incubated. The plates were washed in order to eliminate the unbound peptide and incubated for 2 hours in the presence of an antibody that binds to the carboxyl-terminal end of the β-amyloid peptide. Subsequently, the plates were washed and incubated with a peroxidase-conjugated secondary antibody. […] The optical density was measured by the absorbance at 495 nm, and a straight-line pattern was obtained (FIG. 4) with the quantities of β-amyloid added, wherefrom the quantity of β-amyloid in the culture medium collected from the neuronal preparations treated with the compounds of the present invention could be extrapolated (FIG. 5).

[2] = tested on: phosphorylated Tau at Thr 212 and Ser 214; experiment: Western Blot of phosphorylated tau at Thr 212 and Ser 214 (AT100 antibody) in cortical neurons from triple transgenic mice; type: cell-based; conditions: 10 μM gambierol between days 3 and 7 of culture; 3×Tg cultures; p<0.05, n=3
Source text: (§1) In order to perform the experiments of the present invention, one of the following were used: an in vitro cortical neuron model with simultaneous overexpression of tau and β-amyloid obtained from an Alzheimer's disease model in triple transgenic mice (3×Tg−AD or 3×Tg), obtainable by means of the process explained in international application WO2003/053136 and provided by the holders of said application, or an in vitro cortical neuron model obtained from non-transgenic mice (No Tg). […]
(§2) In order to determine the effect of the compound of the present invention on the expression of tau and β-amyloid, Western Blot techniques were used. […] For the Western Blot studies, the protein expression was evaluated using the primary antibodies anti-β-amyloid 6E10 at a 1:500 dilution, anti-Tau AT8 (phosphorylated Tau at Ser 202, 1:1000 dilution) and anti-Tau AT100 (phosphorylated Tau at Thr 212 and Ser 214, 1:1000 dilution). […]
(§3) For the Western Blot assays, the neuronal cultures treated with the compound of the present invention were washed with cold PBS and lysed in 50 mM Tris-HCl buffer (pH 7.4), which contains 150 mM NaCl, 1 mM EDTA, 1% Triton X-100, 2 mM DTT, 2.5 mM PMSF, 40 mg/ml aprotinin, 4 mg/ml leupeptin, 5 mM NaF, 1 mM Na3VO4, 1 mg/ml pepstatin A and 1 mg/ml benzamidine. The total protein concentration was determined by Bradford's method, using bovine albumin as the standard. […]

β-amyloid = experiment: Western Blot of intracellular β-amyloid (6E10 antibody) in cortical neurons from triple transgenic mice; type: cell-based; conditions: 10 μM gambierol between days 3 and 7 of culture; 3×Tg-AD neocortical cultures
Source text: as §1, §2, §3

[3] = tested on: phosphorylated tau at residue Ser 202; experiment: Western Blot of baseline phosphorylated tau at Ser 202 in control neurons from non-transgenic mice; type: cell-based
Procedure: (§4) In order to determine the effect of gambierol on the baseline phosphorylation of tau, Western Blot techniques were used. An in vitro cortical nueron model obtained from non-transgenic mice was used. The neuronal cultures and the processing of the samples were performed in the same manner as in the preceding example. The data obtained were corrected with the quantity of β-actin as a function of the protein content of the samples.

total tau = experiment: Western Blot of baseline total tau (Tau46 antibody) in control neurons from non-transgenic mice; type: cell-based
Procedure: as §4

[4] = tested on: phosphorylated Tau at Ser 202; experiment: Western Blot of phosphorylated tau at Ser 202 (AT8 antibody) in cortical neurons from triple transgenic mice; type: cell-based; conditions: 10 μM gambierol between days 3 and 7 of culture; 3×Tg cultures; p<0.05, n=3
Source text: as §1, §2, §3

cortical neurons = experiment: Cell viability, Alamar Blue fluorescence assay in primary cortical cultures; type: cell-based, mice; conditions: up to a concentration of 20 μM
Source text: (§5) In order to perform the experiments of the present invention, one of the following were used: an in vitro cortical neuron model with simultaneous overexpression of tau and β-amyloid obtained from an Alzheimer's disease model in triple transgenic mice (3×Tg−AD or 3×Tg), obtainable by means of the process explained in international application WO2003/053136 and provided by the holders of said application, or an in vitro cortical neuron model obtained from non-transgenic mice (No Tg). The triple transgenic neuronal model presents simultaneous overexpression of the human transgenes for presenilin (PS1M146V), the β-amyloid precursor protein (APPSwe) and the tau protein (tauP301L), which leads to an Alzheimer's model with overexpression of β-amyloid and hyperphosphorylation of tau.
(§6) The primary cortical cultures were obtained from 3×Tg−AD mice embryos of 15-17 days of gestation and the wild cultures were obtained from control non-3×Tg−AD mice embryos of the same strain. The effect of the compound used in this invention on the cell viability was determined by means of a fluorescence assay using the Alamar Blue viability indicator. In order to perform the assay, primary cortical cultures seeded in 96-well plates were used. The neuronal cells were incubated with the compound of the present invention, which was dissolved in dimethyl sulfoxide (DMSO) and added to the culture medium at different concentrations, and the effect thereof on the neuronal viability was determined at different times of treatment in vitro. The maximum concentration of gambierol evaluated in vitro was 20 μM and the concentration of Alamar Blue was 10%. The reaction volume used was 200 μl. The fluorescence was measured at wavelengths of 530 nm (excitation) and 590 nm (emission).

[5] = as above; type: cell-based, mice; conditions: mouse, primary cortical neuron cultures from mouse embryos, 72 hours in culture, mean ± standard error, three experiments, read-out: Viability of cortical neurons, % with respect to the control
Source text: as §5, §6

[6] = 10 μM gambierol, mean ± standard error, two experiments

## C=CC/C=C\C=C/C1OC2CC3OC4CCC5OC6CC7(C)OC8(C)C(O)CC(CCCO)OC8CC7OC6CC5OC4(C)CC3(C)OC2C=CC1(C)O (stereo not drawn) [gambierol]
[1]
  Levels of extracellular β-amyloid peptide secreted into the culture medium (in words): decrease
[2]
  Phosphorylated tau at Thr 212 and Ser 214 (AT100, Western Blot), in words: significant decrease; also recorded: reduces
β-amyloid
  Overexpression of intracellular β-amyloid (6E10, Western Blot), in words: significant decrease; also recorded: reduces
[3]
  Baseline level of phosphorylated tau at residue Ser 202 in control neurons (in words): did not affect
[3]; [6]
  Levels of phosphorylated tau at residue Ser 202 in control neurons, % with respect to the control: 107 ± 8.1%
Total tau
  Baseline quantity of total tau in control neurons (in words): did not affect
Total tau; [6]
  Baseline levels of total tau in control neurons, % with respect to the control: 111 ± 3.9%
[4]
  Phosphorylated tau at Ser 202 (AT8, Western Blot), in words: significant decrease; also recorded: reduces
Cortical neurons
  Effect on cell viability of cortical neuronal cultures (in words): does not cause a reduction in the viability; also recorded: did not modify the cell viability
[5]; 0.25 μM gambierol
  viability at 72 h, 0.25 μM: 103 ± 5.2%
[5]; 0.5 μM gambierol
  viability at 72 h, 0.5 μM: 110 ± 1.4%
[5]; 1 μM gambierol
  viability at 72 h, 1 μM: 105 ± 6.3%
[5]; 5 μM gambierol
  viability at 72 h, 5 μM: 106 ± 4.7%
[5]; 10 μM gambierol
  viability at 72 h, 10 μM: 105 ± 5.8%
[5]; 20 μM gambierol
  viability at 72 h, 20 μM: 102 ± 3.8%
